This note sets out measurements from PubChem BioAssay (NCI).

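Compound exposure: 48 hours, 5 concentrations, 96-well plates. TGI marks complete inhibition of growth.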 Bounds are passed on as bounds.

Test systems include DMS 114 small cell lung; LXFL 529 NSCLC; RXF-631 renal; P388 leukemia; P388/ADR leukemia; SN12K1 renal.
Holding throughout (assay): NCI tumour cell line growth inhibition, 48 h

In the case of `CCOc1ccc(N=Cc2cc(OC)c(OC)c(OC)c2)cc1`, the TGI in the assay on DMS 114 small cell lung and with LXFL 529 NSCLC was above 100 µM in each case.
As to `CC(C)(C)C1CCC2c3c([nH]c4ccccc34)C3C(=O)N(c4ccc(Br)cc4)C(=O)C3C2C1` (stereo not drawn), the TGI in the assay on DMS 114 small cell lung was 41.6 µM; in the assay on LXFL 529 NSCLC, 48.1 µM.
In the case of `CCN(CC)CC(C)(C)C(=O)/C=C/c1ccc(C)cc1`, the values for the TGI in the assay with LXFL 529 NSCLC and in the assay with RXF-631 renal were 20.1 µM and 55.7 µM, respectively.
In the case of `Cc1[nH]n(-c2ccccc2)c(=S)c1C(=O)c1ccccc1`, the values for the TGI in the assay with DMS 114 small cell lung, in the assay with LXFL 529 NSCLC and with RXF-631 renal were 99.1 µM, 37.2 µM and 61.6 µM, respectively.
As to `CCC(C)(C)NC1=C(NC(C)=O)C(=O)c2ccccc2C1=O`, in the assay on LXFL 529 NSCLC, the TGI was above 75 µM.
Regarding `C[n+]1c2ccccc2c(NC(CCC(N)=O)C(=O)O)c2ccccc21` (stereo not drawn), the TGI in the assay on DMS 114 small cell lung, in the assay with LXFL 529 NSCLC and in the assay on RXF-631 renal was above 100 µM each time.
For `Cc1ccc(N2C(=O)/C(=c3\s/c(=C(/N)O)c(=N)n3-c3ccccc3)SC2=S)cc1`, in the assay on LXFL 529 NSCLC, the TGI is above 100 µM.
On to `Cc1ccc(S(=O)(=O)C2=c3ncccc3=C3C(=O)c4ccccc4C(=O)C32)cc1` (stereo not drawn), for which the TGI in the assay with DMS 114 small cell lung and in the assay with LXFL 529 NSCLC was above 100 µM in each case.
In the case of `Nc1nc(=O)n(C2OC(CO)C(O)C2O)cc1F` (stereo not drawn), the TGI is 3.26 µM in the assay on DMS 114 small cell lung, 0.0341 µM in the assay on P388 leukemia, 0.182 µM in the assay with P388/ADR leukemia and above 100 µM in the assay with SN12K1 renal.
With `CC1=NN(C(=O)c2ccc(Cl)cc2)C(=O)/C1=C/c1cccc(O)c1`, the TGI in the assay with DMS 114 small cell lung and with LXFL 529 NSCLC was above 100 µM throughout.
Regarding `Cc1ccc2c(c1)NC(=O)C(N=[N+]=[N-])(c1ccccc1)C2=O` (stereo not drawn), the results for the TGI in the assay on DMS 114 small cell lung and in the assay on LXFL 529 NSCLC were 81.1 µM and 66.1 µM, respectively.
Consider `c1ccc2cc3n[se]nc3cc2c1`, for which the TGI in the assay on DMS 114 small cell lung, with LXFL 529 NSCLC and in the assay on RXF-631 renal was above 100 µM each time.
`Cc1c2n(c3ccccc13)CC1C2N(C)OC1(C)C` (stereo not drawn) showed a TGI in the assay on DMS 114 small cell lung above 100 µM.
